# Experimental data taken from patent US20180346446A1, “IRE1 SMALL MOLECULE INHIBITORS” (QUENTIS THERAPEUTICS, INC., priority 2017, published 2018).
# pEC50, pIC50: −log10 of the molar value. Counter-ions that a name gives are not always drawn.
# Key:
# 293T cells = experiment: Growth assay (cytotoxicity); assay type: cell-based; settings: 2 day incubation
# Method: A growth assay was performed to evaluate the compounds disclosed herein for cytotoxicity. Briefly, 5,000,000 293T cells were resuspended in 18 mL of cDMEM for a final concentration of 277,777 cells/mL. […] In a separate 96 well dilution plate, 199 uL cDMEM and 1 uL of DMSO or any one of the compounds disclosed herein (shown as Test Compound 1, 2, 3, 4, 5, or 6 below) were added to wells A4, A8, C4, C8, E4, E8, G4, and G8. 133.3 uL cDMEM was added to wells 1, 2, 3, 5, 6, and 7 in rows A, C, E and G of the dilution plate. Compounds were serially diluted leftwards in threefold dilutions (66.7 uL into 133.3 uL cDMEM). 20 uL of each dilution was transferred in duplicate (duplicates in vertical paired wells) to the cells plated in the 96-well plate shown in Table 5, to the total concentrations shown below. 200 uL cDMEM was added to media wells (wells G5-H8). The plate was then placed in a humidified chamber for a 2 day incubation, and then photographed (media was more yellow in wells with potent cell growth). Absorbance was then measured at about […] (lower for more acidic media) and about […] (higher for more acidic media).
# IRE1a [1] = target: T1, IRE1a (Homo sapiens, UniProt O75460); experiment: In vitro FRET assay (XBP1 RNA probe cleavage by IRE1a); assay type: biochemical; parameters: purchased SignalChem; settings: 2 nM IRE1a protein
# T1 sequence (O75460 19-977): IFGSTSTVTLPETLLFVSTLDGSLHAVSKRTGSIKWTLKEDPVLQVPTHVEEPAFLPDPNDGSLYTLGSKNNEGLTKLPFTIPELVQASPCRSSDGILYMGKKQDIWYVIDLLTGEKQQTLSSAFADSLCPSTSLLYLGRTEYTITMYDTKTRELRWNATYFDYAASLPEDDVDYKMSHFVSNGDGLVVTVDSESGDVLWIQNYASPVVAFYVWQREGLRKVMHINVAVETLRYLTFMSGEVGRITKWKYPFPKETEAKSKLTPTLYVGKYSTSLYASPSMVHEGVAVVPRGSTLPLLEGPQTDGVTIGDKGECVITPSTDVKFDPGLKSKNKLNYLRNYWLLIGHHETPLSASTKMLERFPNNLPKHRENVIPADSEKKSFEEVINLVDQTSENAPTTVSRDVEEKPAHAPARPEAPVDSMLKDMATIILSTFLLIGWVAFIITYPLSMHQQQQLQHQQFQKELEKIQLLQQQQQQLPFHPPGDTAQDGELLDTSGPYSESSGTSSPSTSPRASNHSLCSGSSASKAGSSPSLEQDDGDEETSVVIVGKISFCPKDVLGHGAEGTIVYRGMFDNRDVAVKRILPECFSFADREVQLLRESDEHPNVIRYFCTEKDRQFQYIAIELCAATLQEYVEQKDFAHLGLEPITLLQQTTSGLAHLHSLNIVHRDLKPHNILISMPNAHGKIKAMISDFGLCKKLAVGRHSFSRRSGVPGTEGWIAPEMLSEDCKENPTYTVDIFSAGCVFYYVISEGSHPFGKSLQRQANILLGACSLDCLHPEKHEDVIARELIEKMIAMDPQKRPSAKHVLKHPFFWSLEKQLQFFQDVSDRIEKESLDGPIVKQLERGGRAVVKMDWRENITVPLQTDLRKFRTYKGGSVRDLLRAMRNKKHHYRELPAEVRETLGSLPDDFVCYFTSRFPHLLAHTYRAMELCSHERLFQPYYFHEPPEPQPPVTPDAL
# IRE1a [2] = target: T1, IRE1a; experiment: IRE1a Endoribonuclease Nanoluciferase Assay (XBP1 luciferase reporter in 293T cells); assay type: cell-based; settings: 293T cells transfected with XBP1 luciferase reporter, ER stressors +/- inhibitors
# In short: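 293T cells were transfected with a PGK-Luc2-P2A-XBP1u-nanoluciferase-PEST reporter and plated in 96-well format. A day later they were treated with ER stressors with or without inhibitors. Lysates were read for luminescence with OneGlo, then again after Stop and Glo.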
# hERG channel = target: T2, hERG channel (Homo sapiens, UniProt Q12809); experiment: hERG potassium ion channel automated planar clamp (QPatch); assay type: cell-based; settings: hERG channel expressed in a stable CHO cell line, read-out: hERG channel blockade Mean IC50
# T2 construct: expressed in transfected cells
# T2 sequence (Q12809 whole entry): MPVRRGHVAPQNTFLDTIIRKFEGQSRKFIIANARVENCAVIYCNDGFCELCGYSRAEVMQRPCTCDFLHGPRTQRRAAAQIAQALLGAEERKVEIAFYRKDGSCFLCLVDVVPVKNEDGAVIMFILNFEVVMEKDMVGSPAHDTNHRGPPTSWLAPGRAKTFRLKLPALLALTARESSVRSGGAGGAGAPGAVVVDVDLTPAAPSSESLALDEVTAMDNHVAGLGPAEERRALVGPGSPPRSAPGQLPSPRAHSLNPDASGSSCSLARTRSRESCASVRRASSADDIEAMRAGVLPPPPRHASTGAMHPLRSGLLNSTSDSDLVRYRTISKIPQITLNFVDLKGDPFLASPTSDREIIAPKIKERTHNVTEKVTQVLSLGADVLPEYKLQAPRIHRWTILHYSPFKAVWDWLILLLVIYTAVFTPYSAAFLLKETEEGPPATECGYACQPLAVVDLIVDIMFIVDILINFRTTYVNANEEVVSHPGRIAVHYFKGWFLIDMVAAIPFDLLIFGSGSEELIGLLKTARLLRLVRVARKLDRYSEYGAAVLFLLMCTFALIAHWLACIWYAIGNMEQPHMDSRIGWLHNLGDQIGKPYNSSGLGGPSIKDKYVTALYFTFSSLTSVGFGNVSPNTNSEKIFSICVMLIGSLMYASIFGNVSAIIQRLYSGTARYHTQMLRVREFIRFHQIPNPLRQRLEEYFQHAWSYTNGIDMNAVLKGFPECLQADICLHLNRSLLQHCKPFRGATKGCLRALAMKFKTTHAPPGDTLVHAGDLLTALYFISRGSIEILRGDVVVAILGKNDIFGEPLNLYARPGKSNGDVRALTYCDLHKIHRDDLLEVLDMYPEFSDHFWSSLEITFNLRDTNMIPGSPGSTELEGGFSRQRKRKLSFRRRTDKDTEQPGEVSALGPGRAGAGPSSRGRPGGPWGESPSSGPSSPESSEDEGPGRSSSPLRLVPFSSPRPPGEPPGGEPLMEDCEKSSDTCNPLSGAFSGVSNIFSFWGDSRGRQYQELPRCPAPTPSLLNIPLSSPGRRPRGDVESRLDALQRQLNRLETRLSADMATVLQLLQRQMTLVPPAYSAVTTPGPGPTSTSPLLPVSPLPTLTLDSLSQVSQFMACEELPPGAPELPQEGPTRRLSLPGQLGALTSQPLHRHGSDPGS
# Method: Blockade of the cardiac ion channel coded by the hERG gene can lead to cardiac arrhythmia. […] To determine the viability of the compounds disclosed herein as pharmacological agents that would not affect the hERG channel blockade, a standard automated planar clamp method was employed to determine the IC50 for various test compounds on their inhibition of the channel. An electrophysiological assay was prepared to measure the electric current passing through the hERG channel expressed in a stable CHO cell line by applying the planar clamp method. This assay was performed using the automated QPatch platform (Sophion, Denmark) which allows fast and accurate electrophysiological characterization of the hERG ion channel and the determination of IC50 values for the test compounds, as shown in Table 9.
Compound,% Growth at 0.185 uM (293T cells),% Growth at 0.5556 uM (293T cells),% Growth at 1.667 uM (293T cells),% Growth at 5 uM (293T cells),pIC50 (IRE1a [1]),pEC50 (IRE1a [2]),pIC50 (hERG channel)
CCc1cc(-c2ncc(NS(=O)(=O)c3ccccc3Cl)cc2F)cc2cnc(N[C@H]3CC[C@H](N)CC3)nc12.O=CO [52; Formic Acid],D (D: >75% to ≤100%),D (D: >75% to ≤100%),D (D: >75% to ≤100%),C (C: >50% to ≤75%),≥ 8.30,≥ 8.30,
CCc1cc(-c2ncc(NS(=O)(=O)c3ccccc3Cl)cc2C)cc2cnc(N[C@H]3CC[C@H](N)CC3)nc12.O=CO [20; Formic Acid],D (D: >75% to ≤100%),D (D: >75% to ≤100%),D (D: >75% to ≤100%),C (C: >50% to ≤75%),≥ 8.30,7.00 to 7.30,
CCc1cc(-c2ccc(NS(=O)(=O)c3ccccc3Cl)c(F)c2)cc2cnc(N[C@H]3CC[C@H](N(C)C)CC3)nc12.O=CO [69; Formic Acid],,D (D: >75% to ≤100%),C (C: >50% to ≤75%),C (C: >50% to ≤75%),≥ 8.30,≥ 8.30,4.30 to 5.00
CCc1cc(-c2ccc(NS(=O)(=O)c3ccccc3Cl)nn2)cc2cnc(N[C@H]3CC[C@H](N)CC3)nc12.O=CO [32; Formic Acid],D (D: >75% to ≤100%),D (D: >75% to ≤100%),C (C: >50% to ≤75%),B (B: >25% to ≤50%),≥ 8.30,≥ 8.30,
CCc1cc(-c2cc(NS(=O)(=O)c3ccccc3Cl)n[nH]2)cc2cnc(N[C@H]3CC[C@H](N)CC3)nc12.O=CO [29; Formic Acid],D (D: >75% to ≤100%),D (D: >75% to ≤100%),D (D: >75% to ≤100%),D (D: >75% to ≤100%),≥ 8.30,< 7.00,
CCc1cc(-c2nnc(NS(=O)(=O)c3ccccc3Cl)cc2OC)cc2cnc(N[C@H]3CC[C@H](N)CC3)nc12.O=CO [65; Formic Acid],D (D: >75% to ≤100%),D (D: >75% to ≤100%),D (D: >75% to ≤100%),C (C: >50% to ≤75%),≥ 8.30,7.30 to 8.30,
CCc1cc(-c2ccc(NS(=O)(=O)c3ccccc3Cl)nc2OC)cc2cnc(N[C@H]3CC[C@H](N)CC3)nc12 [37; HCl ^],,D (D: >75% to ≤100%),C (C: >50% to ≤75%),B (B: >25% to ≤50%),≥ 8.30,≥ 8.30,4.30 to 5.00
CCc1cc(-c2ccc(NS(=O)(=O)c3ccccc3Cl)cn2)cc2cnc(N[C@H]3CC[C@H](N)CC3)nc12.O=CO [28; Formic Acid],D (D: >75% to ≤100%),D (D: >75% to ≤100%),C (C: >50% to ≤75%),B (B: >25% to ≤50%),≥ 8.30,≥ 8.30,
